# In US20100099694A1, “2-ANILINO-4-HETEROARYL PYRIMIDINE DERIVATIVES, AND PREPARATION THEREOF AS MEDICAMENTS, PHARMACEUTICAL COMPOSITIONS, AND IN PARTICULAR IKK INHIBITORS” (SANOFI-AVENTIS, priority 2007, published 2010):
row,Compound,melting point
1,"O=S(=O)(c1ccc(Nc2nccc(N3CCc4cc(F)ccc43)n2)cc1)N(CCN1CCCC1)C1CCNCC1 [Example 1, 4-[4-(5-Fluoro-2,3-dihydroindol-1-yl)pyrimidin-2-ylamino]-N-piperidin-4-yl-N-(2-pyrrolidin-1-yl-ethyl)benzenesulphonamide]",269.5 °C
2,"O=S(=O)(c1ccc(Nc2nccc(N3CCc4cc(F)ccc43)n2)cc1)N(CCN1CCCC1)C1CCN(C2CC2)CC1 [Example 2, N-(1-Cyclopropylpiperidin-4-yl)-4-[4-(5-fluoro-2,3-dihydroindol-1-yl)pyrimidin-2-ylamino]-N-(2-pyrrolidin-1-ylethyl)benzenesulphonamide]",215.4 °C
3,"O=S(=O)(c1ccc(Nc2nccc(N3CCc4cc(F)ccc43)n2)cc1)N(CCN1CCCC1)C1CCN(CCCC(F)(F)F)CC1 [Example 3, 4-[4-(5-Fluoro-2,3-dihydroindol-1-yl)-pyrimidin-2-ylamino]-N-(2-pyrrolidin-1-ylethyl)-N-[1-(4,4,4-trifluorobutyl)piperidin-4-yl]benzenesulphonamide]",198 °C
4,"O=S(=O)(c1ccc(Nc2nccc(N3CCc4cc(F)ccc43)n2)cc1)N(CCN1CCCC1)C1CCN(Cc2ccsc2)CC1 [Example 4, 4-[4-(5-Fluoro-2,3-dihydroindol-1-yl)pyrimidin-2-ylamino]-N-(2-pyrrolidin-1-ylethyl)-N-(1-thiophen-3-ylmethylpiperidin-4-yl)benzenesulphonamide]",140 °C
5,"Cn1cccc1CN1CCC(N(CCN2CCCC2)S(=O)(=O)c2ccc(Nc3nccc(N4CCc5cc(F)ccc54)n3)cc2)CC1 [Example 5, 4-[4-(5-Fluoro-2,3-dihydroindol-1-yl)-pyrimidin-2-ylamino]-N-[1-(1-methyl-1H-pyrrol-2-ylmethyl)piperidin-4-yl]-N-(2-pyrrolidin-1-ylethyl)benzenesulphonamide]",94 °C
6,"O=S(=O)(c1ccc(Nc2nccc(N3CCc4cc(F)ccc43)n2)cc1)N(CCN1CCCC1)C1CCN(CCC(F)(F)F)CC1 [Example 6, 4-[4-(5-Fluoro-2,3-dihydroindol-1-yl)-pyrimidin-2-ylamino]-N-(2-pyrrolidin-1-ylethyl)-N-[1-(3,3,3-trifluoropropyl)piperidin-4-yl]benzenesulphonamide]",147 °C
7,"O=S(=O)(c1ccc(Nc2nccc(N3CCc4cc(F)ccc43)n2)cc1)N(CCN1CCCC1)C1CCN(CC(F)(F)F)CC1 [Example 7, 4-[4-(5-Fluoro-2,3-dihydroindol-1-yl)-pyrimidin-2-ylamino]-N-(2-pyrrolidin-1-ylethyl)-N-[1-(2,2,2-trifluoroethyl)piperidin-4-yl]benzenesulphonamide]",139.3 °C
8,"O=S(=O)(c1ccc(Nc2nccc(N3CCc4cc(F)ccc43)n2)cc1)N(CCN1CCCC1)C1CCOCC1 [Example 8, 4-[4-(5-Fluoro-2,3-dihydroindol-1-yl)pyrimidin-2-ylamino]-N-(2-pyrrolidin-1-ylethyl)-N-(tetrahydropyran-4-yl)benzenesulphonamide]",100 °C
